Results on 20 compounds are retold here after US8658661B2, “Oxadiazole inhibitors of leukotriene production” (Boehringer Ingelheim International GmbH, priority 2010, dated 2014).

By IC50 is commonly meant the concentration that gives 50% inhibition.

Each structure is given as a SMILES string.

In assay [1] the target is T1, recombinant human FLAP protein (Homo sapiens, UniProt P20292).
T1 construct: made in house; host or cells: Sf9 insect cells (100,000×g membrane pellet used)
T1 sequence (P20292 1-161): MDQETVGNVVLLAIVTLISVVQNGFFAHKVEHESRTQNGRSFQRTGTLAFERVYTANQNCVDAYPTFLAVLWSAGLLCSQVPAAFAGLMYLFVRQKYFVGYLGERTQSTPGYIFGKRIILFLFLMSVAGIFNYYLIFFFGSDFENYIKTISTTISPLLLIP
Description: FLAP binding assay (SPA, displacement of [125I]L-691,831). The settings on record: membranes of sf9 cells expressing recombinant human FLAP; [125I]L-691,831 probe; read-out: FLAP binding IC50. Summed up: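 Membranes from sf9 cells expressing human FLAP in pH 7.5 Tris buffer (MgCl2, EDTA, PMSF). Non-specific binding defined with 10 μM cold L-691,831.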
(Displacement assays read how much labelled ligand stays bound in the presence of the test substance.)

Assay [2] concerns synthesis of LTB4 in human whole blood. The assay can be described thus: Human whole blood assay (inhibition of LTB4 synthesis, calcimycin stimulated). The following applies: heparinized human whole blood, calcimycin 20 μM, plasma LTB4. The assay is classed as cell-based. Put shortly: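 LTB4 levels in plasma were measured by antibody-based HTRF after heparinized human whole blood, pretreated with compound (15 min, 37° C), was challenged with 20 μM calcimycin for 30 min at 37° C.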

Consider `CC(C)C(C)(c1ccc(-c2cnc(N)nc2)cc1)c1noc(NCC2CCOCC2)n1` (stereo not shown) [Example 201, 5-[4-(1,2-Dimethyl-1-{5-[(tetrahydro-pyran-4-ylmethyl)-amino]-[1,2,4]oxadiazol-3-yl}-propyl)-phenyl]-pyrimidin-2-ylamine], for which the results for the IC50 in assay [1] and in assay [2] were 13 nM and 200 nM, respectively.
In the same order, the values of `CC(C)C(C)(c1ccc(-c2cnc(N)nc2)cc1)c1noc(N2CCN(C)C(=O)C2)n1` (stereo not shown) [Example 202, 4-(3-{1-[4-(2-Amino-pyrimidin-5-yl)-phenyl]-1,2-dimethyl-propyl}-[1,2,4]oxadiazol-5-yl)-1-methyl-piperazin-2-one] are 46 nM and 350 nM.
In the same order, the values of `CC(C)C(C)(c1ccc(-c2cnc(N)nc2)cc1)c1noc(N2CC(C)(O)C2)n1` (stereo not shown) [Example 203, 1-(3-{1-[4-(2-Amino-pyrimidin-5-yl)-phenyl]-1,2-dimethyl-propyl}-[1,2,4]oxadiazol-5-yl)-3-methyl-azetidin-3-ol] are 15 nM and 130 nM.
In the same order, the values of `CC(c1ccc(-c2cnc(N)nc2)cc1)(c1noc(N2CCCC2)n1)C1CC1` (stereo not shown) [Example 204, 5-{4-[1-Cyclopropyl-1-(5-pyrrolidin-1-yl-[1,2,4]oxadiazol-3-yl)-ethyl]-phenyl}-pyrimidin-2-ylamine] are 13 nM and 150 nM.
For `CC(c1ccc(-c2cnc(N)nc2)cc1)(c1noc(-c2cncn2C2COC2)n1)C1CC1` (stereo not shown) [Example 206, 5-(4-{1-Cyclopropyl-1-[5-(3-oxetan-3-yl-3H-imidazol-4-yl)-[1,2,4]oxadiazol-3-yl]-ethyl}-phenyl)-pyrimidin-2-ylamine], the IC50 in assay [1] was determined as 23 nM; in assay [2], 310 nM.
For `CC(c1ccc(-c2cnc(N)nc2)cc1)(c1noc(-c2cn(C3COC3)cn2)n1)C1CC1` (stereo not shown) [Example 207, 5-(4-{1-Cyclopropyl-1-[5-(1-oxetan-3-yl-1H-imidazol-4-yl)-[1,2,4]oxadiazol-3-yl]-ethyl}-phenyl)-pyrimidin-2-ylamine], the IC50 in assay [1] came to 92 nM; in assay [2] it was 700 nM.
The like results for `CC(C)C(C)(c1ccc(-c2cnc(N)nc2)cc1)c1noc(N2CCC(S(C)(=O)=O)CC2)n1` (stereo not shown) [Example 208, 5-(4-{1-[5-(4-Methanesulfonyl-piperidin-1-yl)-[1,2,4]oxadiazol-3-yl]-1,2-dimethyl-propyl}-phenyl)-pyrimidin-2-ylamine] were, in that order, 13 nM and 250 nM.
In the case of `CC(C)C(C)(c1ccc(-c2cnc(N)nc2)cc1)c1noc(N2CCC(CO)CC2)n1` (stereo not shown) [Example 209, [1-(3-{1-[4-(2-Amino-pyrimidin-5-yl)-phenyl]-1,2-dimethyl-propyl}-[1,2,4]oxadiazol-5-yl)-piperidin-4-yl]-methanol], the IC50 in assay [1] was 8.2 nM; in assay [2] it was 100 nM.
Turning to `C[C@@](c1ccc(-c2ccc(N)nc2)cc1)(c1noc(-c2cnc(N3CCNCC3)cn2)n1)C1CC1` [Example 210, 5-(4-{(R)-1-Cyclopropyl-1-[5-(3,4,5,6-tetrahydro-2H-[1,2′]bipyrazinyl-5′-yl)-[1,2,4]oxadiazol-3-yl]-ethyl}-phenyl)-pyridin-2-ylamine], the IC50 in assay [1] is 4.4 nM; in assay [2], 190 nM.
The like results for `CC(C)C(C)(c1ccc(-c2cnc(N)nc2)cc1)c1noc(N2CCN(CC(C)(C)O)CC2)n1` (stereo not shown) [Example 211, 1-[4-(3-{1-[4-(2-Amino-pyrimidin-5-yl)-phenyl]-1,2-dimethyl-propyl}-[1,2,4]oxadiazol-5-yl)-piperazin-1-yl]-2-methyl-propan-2-ol] were, in that order, 12 nM and 230 nM.
Take `CC(C)C(C)(c1ccc(-c2cnc(N)nc2)cc1)c1noc(N2CCC(CCO)CC2)n1` (stereo not shown) [Example 212, 2-[1-(3-{1-[4-(2-Amino-pyrimidin-5-yl)-phenyl]-1,2-dimethyl-propyl}-[1,2,4]oxadiazol-5-yl)-piperidin-4-yl]-ethanol]: the IC50 amounted to 12 nM in assay [1] and 86 nM in assay [2].
Consider `CC(C)C(C)(c1ccc(-c2cnc(N)nc2)cc1)c1noc(N2CCC(C(N)=O)CC2)n1` (stereo not shown) [Example 213, 1-(3-{1-[4-(2-Amino-pyrimidin-5-yl)-phenyl]-1,2-dimethyl-propyl}-[1,2,4]oxadiazol-5-yl)-piperidine-4-carboxylic acid amide], for which the results for the IC50 in assay [1] and in assay [2] were 14 nM and 330 nM, respectively.
In the same order, the values of `C[C@](c1ccc(-c2cnc(N)cn2)cc1)(c1noc(-c2cnc(N3CCNCC3)cn2)n1)C1CC1` [Example 214, 5-(4-{(S)-1-Cyclopropyl-1-[5-(3,4,5,6-tetrahydro-2H-[1,2′]bipyrazinyl-5′-yl)-[1,2,4]oxadiazol-3-yl]-ethyl}-phenyl)-pyrazin-2-ylamine] are 12 nM and 450 nM.
In the case of `C[C@@](c1ccc(-c2cnc(N)nc2)cc1)(c1noc(-c2cnn(CCN3CCCC3)c2)n1)C1CC1` [Example 215, 5-[4-((R)-1-Cyclopropyl-1-{5-[1-(2-pyrrolidin-1-yl-ethyl)-1H-pyrazol-4-yl]-[1,2,4]oxadiazol-3-yl}-ethyl)-phenyl]-pyrimidin-2-ylamine], the values for the IC50 in assay [1] and in assay [2] were 3.6 nM and 28 nM, respectively.
In the same order, the values of `CNC1CCN(c2nc(C(C)(c3ccc(-c4cnc(N)nc4)cc3)C(C)C)no2)CC1` (stereo not shown) [Example 217, 5-(4-{1,2-Dimethyl-1-[5-(4-methylamino-piperidin-1-yl)-[1,2,4]oxadiazol-3-yl]-propyl}-phenyl)-pyrimidin-2-ylamine] are 90 nM and 1200 nM.
For the compound `CC(C)C(C)(c1ccc(-c2cnc(N)nc2)cc1)c1noc(N2CCC(N(C)C)CC2)n1` (stereo not shown) [Example 218], the IC50 in assay [1] came out at 130 nM; in assay [2] it was 920 nM.
In the same order, the values of `CC(C)C(C)(c1ccc(-c2cnc(N)nc2)cc1)c1noc(N2CCC(C(=O)O)CC2)n1` (stereo not shown) [Example 219, 1-(3-{1-[4-(2-Amino-pyrimidin-5-yl)-phenyl]-1,2-dimethyl-propyl}-[1,2,4]oxadiazol-5-yl)-piperidine-4-carboxylic acid] are 39 nM and over 5000 nM.
The like results for `CO[C@@H]1CCN(C(=O)Cn2cc(-c3nc([C@@](C)(c4ccc(-c5cnc(N)nc5)cc4)C4CC4)no3)cn2)C1` [Example 220, 2-[4-(3-{(R)-1-[4-(2-Amino-pyrimidin-5-yl)-phenyl]-1-cyclopropyl-ethyl}-[1,2,4]oxadiazol-5-yl)-pyrazol-1-yl]-1-((R)-3-methoxy-pyrrolidin-1-yl)-ethanone] were, in that order, 8.5 nM and 210 nM.
In the same order, the values of `CO[C@H]1CCN(C(=O)Cn2cc(-c3nc([C@@](C)(c4ccc(-c5cnc(N)nc5)cc4)C4CC4)no3)cn2)C1` [Example 221, 2-[4-(3-{(R)-1-[4-(2-Amino-pyrimidin-5-yl)-phenyl]-1-cyclopropyl-ethyl}-[1,2,4]oxadiazol-5-yl)-pyrazol-1-yl]-1-((S)-3-methoxy-pyrrolidin-1-yl)-ethanone] are 6.2 nM and 150 nM.
Turning to `CC(C)C(C)(c1ccc(-c2cnc(N)nc2)cc1)c1noc(N2CCC(N)CC2)n1` (stereo not shown) [Example 222, 5-(4-{1-[5-(4-Amino-piperidin-1-yl)-[1,2,4]oxadiazol-3-yl]-1,2-dimethyl-propyl}-phenyl)-pyrimidin-2-ylamine], the concentration for half-maximal inhibition (IC50) stood at 130 nM in assay [1] and 1700 nM in assay [2].
